Data reported in patent US12162888B2, “Carboxamides as ubiquitin-specific protease inhibitors” (Valo Early Discovery, Inc., priority 2018, dated 2024).
Read-outs that look alike come from different tables or passages of the source.

Biological target: T1, USP28 (His-tagged USP28-FL-mammalian) (Homo sapiens, UniProt Q96RU2)
T1 construct: Expression of USP28 (1-1077)-TEV-6*His (pTT5 vector) was carried out in Expi293f cells; made in house; host or cells: Expi293F cells (pTT5 vector)
T1 sequence (Q96RU2 1-1077): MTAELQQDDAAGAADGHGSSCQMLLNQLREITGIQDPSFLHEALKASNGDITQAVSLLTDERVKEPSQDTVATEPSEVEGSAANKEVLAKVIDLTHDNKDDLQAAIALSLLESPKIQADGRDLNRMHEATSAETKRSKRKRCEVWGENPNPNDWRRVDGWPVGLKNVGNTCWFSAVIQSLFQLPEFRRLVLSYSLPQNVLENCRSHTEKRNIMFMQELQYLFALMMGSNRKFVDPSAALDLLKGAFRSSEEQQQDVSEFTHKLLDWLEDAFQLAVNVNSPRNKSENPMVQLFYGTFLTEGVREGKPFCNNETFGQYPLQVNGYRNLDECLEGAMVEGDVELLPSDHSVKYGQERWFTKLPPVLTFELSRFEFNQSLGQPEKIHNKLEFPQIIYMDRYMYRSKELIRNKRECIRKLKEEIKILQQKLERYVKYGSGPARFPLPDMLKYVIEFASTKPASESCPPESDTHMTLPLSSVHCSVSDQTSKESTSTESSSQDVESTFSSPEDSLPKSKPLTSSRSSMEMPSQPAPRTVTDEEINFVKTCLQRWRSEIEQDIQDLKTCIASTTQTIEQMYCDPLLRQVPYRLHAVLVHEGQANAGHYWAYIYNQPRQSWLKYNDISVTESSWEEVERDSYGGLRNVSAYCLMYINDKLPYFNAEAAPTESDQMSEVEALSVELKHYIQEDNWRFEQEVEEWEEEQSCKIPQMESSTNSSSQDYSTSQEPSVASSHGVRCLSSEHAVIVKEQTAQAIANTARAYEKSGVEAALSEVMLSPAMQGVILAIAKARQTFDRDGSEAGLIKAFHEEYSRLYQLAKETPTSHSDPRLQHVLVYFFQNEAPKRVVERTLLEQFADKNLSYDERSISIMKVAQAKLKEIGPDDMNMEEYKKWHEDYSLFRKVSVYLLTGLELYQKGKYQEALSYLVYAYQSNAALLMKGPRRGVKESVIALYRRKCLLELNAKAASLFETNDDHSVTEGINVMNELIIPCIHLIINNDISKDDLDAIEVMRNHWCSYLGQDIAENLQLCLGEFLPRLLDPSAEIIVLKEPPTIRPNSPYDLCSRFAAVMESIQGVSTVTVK
Assay: Ubiquitin-Rhodamine 110 Assay for USP28 Activity, Example A-1(a)
Assay type: biochemical
Method: Example A-1(a): Biochemical Assay: Ubiquitin-Rhodamine 110 Assay for USP28 Activity
The assay was performed in a final volume of 9 μL in assay buffer containing 20 mM Tris-HCl (pH 8.0, (1M Tris-HCl, pH 8.0 solution; Corning 46-031-CM)), 3 mM BME (2-Mercaptoethanol; Sigma 63689-25ML-F), 0.03% BGG (0.22 μM filtered, Sigma, G7516-25G), and 0.01% Triton X-100 (Sigma, T9284-10L). Nanoliter quantities of 10-point, 3-fold serial dilution in DMSO was pre-dispensed into 1536 assay plates (Corning, #3724BC) for a final test concentration of 25 μM to 1.3 nM, top to lowest dose, respectively. Enzyme USP28, construct His-tagged USP28-FL-mammalian, (protein expression and purification procedure described below). Concentration and incubation times were optimized for the maximal signal-to-background while maintaining initial velocity conditions at a fixed substrate concentration. The final concentration of the enzyme in the assay was […]. Final substrate (Ub-Rh110; Ubiquitin-Rhodamine 110, UbiQ-126) concentration was 25 nM with [Ub-Rh110]<<Km. 3 μL of 2× enzyme was added to assay plates (pre-stamped with compound) preincubated with […] for 30 minutes and then 3 μL of 2× Ub-Rh110 was added to assay plates. Plates were incubated for 45 minutes at room temperature before addition of 3 μL of stop solution (final concentration of 10 mM citric acid (Sigma, 251275-500G)). Fluorescence was read on the Envision (Excitation at 485 nm and Emission at 535 nm; Perkin Elmer) or on the PheraSTAR (Excitation at 485 nm and Emission at 535 nm; BMG Labtech).
Procedure for the Protein expression and purification for construct His-tagged USP28-FL-mammalian
Expression of USP28 (1-1077)-TEV-6*His (pTT5 vector) was carried out in Expi293f cells (sequence derived from uniprot ID: Q96RU2-1). Cells were re-suspended in lysis buffer B 50 mM Bicine, pH 8.0, 20 mM NaCl, 5% glycerol, 0.1% CHAPS, 5 mM β-ME, 1 mM PMSF, 1 ug/ml Leupeptin, 1 ug/ml Pepstatin) and lysed by sonication. Insoluble material was removed by centrifugation and the supernatant was loaded onto a Ni-NTA column (GE Healthcare) equilibrated with Ni Buffer A (50 mM Bicine, pH 8.0, 20 mM NaCl, 5% glycerol, 0.1% CHAPS, 5 mM R-ME.) and washed with Ni Buffer A+20 mM imidazole until A280 reached baseline. The protein was eluted with Ni Buffer B (50 mM Bicine, pH 8.0, 20 mM NaCl, 5% glycerol, 0.1% CHAPS, 5 mM β-ME, 300 mM imidazole.). The protein was further purified using a Superdex™ 200 10/300 GL column (GE Healthcare) equilibrated with 50 mM Bicine, pH 8.0, 20 mM NaCl, 5% glycerol, 0.1% CHAPS, 5 mM β-ME. The protein was concentrated to 2.5 mg ml-1, flash-frozen in liquid N2 and stored at −80° C.
For assay formats Example A-1(a), A-1(b), and A-2, data were reported as percent inhibition compared with control wells based on the following equation: % inh=1−((FLU−AveLow)/(AveHigh−AveLow)) where FLU=measured Fluorescence, AveLow=average Fluorescence of no enzyme control (n=16), and AveHighh=average Fluorescence of DMSO control (n=16). IC50 values were determined by curve fitting of the standard 4 parameter logistic fitting algorithm included in the Activity Base software package: IDBS XE Designer Model 205. Data is fitted using the Levenburg Marquardt algorithm.

[1] = Ubiquitin-Rhodamine 110 biochemical assay, read-out: USP28 A-1(a) IC50 range
[2] = biochemical IC50 range, Ubiquitin-Rhodamine 110 assay, read-out: USP28 A-1(a)

Row | SMILES | IC50 [1] [nM] | IC50 [2] [nM]
1 | CN[C@@H]1CN(c2ccc3c(n2)CC[C@H](NC(=O)c2sc4nc(C)ccc4c2N)C3)C[C@@H]1COC [Example 489, 3-amino-N-[(6S)-2-[(3S,4S)-3-(methoxymethyl)-4-(methylamino)pyrrolidin-1-yl]-5,6,7,8-tetrahydroquinolin-6-yl]-6-methylthieno[2,3-b]pyridine-2-carboxamide] | 50 to 200 | 
2 | CO[C@@H]1CN(c2ccc3c(n2)CC[C@H](NC(=O)c2sc4nc(C)cnc4c2N)C3)C[C@@H]1N [Example 491, 7-amino-N-[(6S)-2-[(3S,4R)-3-amino-4-methoxypyrrolidin-1-yl]-5,6,7,8-tetrahydroquinolin-6-yl]-3-methylthieno[2,3-b]pyrazine-6-carboxamide] | 50 to 200 | 
3 | CN[C@H]1CN(c2ccc3c(n2)CC[C@H](NC(=O)c2sc4nc(C)c(F)cc4c2N)C3)C[C@@H]1COC [Example 515, 3-amino-5-fluoro-N-[(6S)-2-[(3S,4R)-3-(methoxymethyl)-4-(methylamino)pyrrolidin-1-yl]-5,6,7,8-tetrahydroquinolin-6-yl]-6-methylthieno[2,3-b]pyridine-2-carboxamide] | 50 to 200 | 
4 | Cc1ccc2c(N)c(C(=O)N[C@H]3COc4cc(N5CC6[C@H](C5)NCC6(F)F)ccc4C3)sc2n1 (stereo partly drawn) [Example 655, N-[(3R)-7-[(6aR)-3,3-difluorooctahydropyrrolo[3,4-b]pyrrol-5-yl]-3,4-dihydro-2H-1-benzopyran-3-yl]-3-amino-6-methylthieno[2,3-b]pyridine-2-carboxamide] |  | 1 to 50
5 | CCOc1ncc(C(=O)N[C@H]2COc3cc(N4CCNCC4)ccc3C2)c2c1CCCN2 [Example 678, 5-ethoxy-N-[(3R)-7-(piperazin-1-yl)-3,4-dihydro-2H-1-benzopyran-3-yl]-1,2,3,4-tetrahydro-1,6-naphthyridine-8-carboxamide] |  | 1 to 50
6 | Cc1ccc2c(N)c(C(=O)N[C@H]3COc4cc(OC[C@@H]5CNCC5(F)F)ccc4C3)sc2n1 [Example 685, 3-amino-N-[(3R)-7-{[(3S)-4,4-difluoropyrrolidin-3-yl]methoxy}-3,4-dihydro-2H-1-benzopyran-3-yl]-6-methylthieno[2,3-b]pyridine-2-carboxamide] |  | 1 to 50
7 | Cc1ccc2c(N)c(C(=O)N[C@H]3COc4cc(N5C[C@H](N)[C@@]6(C5)OCC[C@H]6C)ccc4C3)sc2n1 [Example 612-2, 3-amino-N-[(3R)-7-[(4R,5R,9S)-9-amino-4-methyl-1-oxa-7-azaspiro[4.4]nonan-7-yl]-3,4-dihydro-2H-1-benzopyran-3-yl]-6-methylthieno[2,3-b]pyridine-2-carboxamide] |  | 1 to 50
8 | Cc1cnc2c(N)c(C(=O)N[C@H]3CCc4nc(N5C[C@H](N)C6(C5)OCCO6)ccc4C3)sc2n1 [Example 498, 7-amino-N-[(6S)-2-[(9S)-9-amino-1,4-dioxa-7-azaspiro[4.4]nonan-7-yl]-5,6,7,8-tetrahydroquinolin-6-yl]-3-methylthieno[2,3-b]pyrazine-6-carboxamide] | 200 to 2000 | 
9 | COC[C@@H](C)O[C@@H]1CN(c2ccc3c(n2)CC[C@H](NC(=O)c2sc4nc(C)ccc4c2N)C3)C[C@H]1N [Example 483, 3-amino-N-[(6S)-2-[(3R,4R)-3-amino-4-{[(2R)-1-methoxypropan-2-yl]oxy}pyrrolidin-1-yl]-5,6,7,8-tetrahydroquinolin-6-yl]-6-methylthieno[2,3-b]pyridine-2-carboxamide] | 50 to 200 | 
10 | CO[C@@H]1CCCN(c2ccc3c(n2)CC[C@H](NC(=O)c2sc4nc(C)ccc4c2N)C3)C[C@H]1N [Example 493, 3-amino-N-[(6S)-2-[(3R,4R)-3-amino-4-methoxyazepan-1-yl]-5,6,7,8-tetrahydroquinolin-6-yl]-6-methylthieno[2,3-b]pyridine-2-carboxamide] | 1 to 50 | 
11 | Cc1ccc2c(N)c(C(=O)N[C@H]3COc4cc(N5C[C@@H](N)[C@]6(CCCCO6)C5)ccc4C3)sc2n1 [Example 611-2, 3-amino-N-[(3R)-7-[(4R,5S)-4-amino-6-oxa-2-azaspiro[4.5]decan-2-yl]-3,4-dihydro-2H-1-benzopyran-3-yl]-6-methylthieno[2,3-b]pyridine-2-carboxamide] |  | 1 to 50
